Molecular target: T1, recombinant human SAE enzyme (Homo sapiens, UniProt Q9UBT2)
T1 sequence (Q9UBT2 1-640): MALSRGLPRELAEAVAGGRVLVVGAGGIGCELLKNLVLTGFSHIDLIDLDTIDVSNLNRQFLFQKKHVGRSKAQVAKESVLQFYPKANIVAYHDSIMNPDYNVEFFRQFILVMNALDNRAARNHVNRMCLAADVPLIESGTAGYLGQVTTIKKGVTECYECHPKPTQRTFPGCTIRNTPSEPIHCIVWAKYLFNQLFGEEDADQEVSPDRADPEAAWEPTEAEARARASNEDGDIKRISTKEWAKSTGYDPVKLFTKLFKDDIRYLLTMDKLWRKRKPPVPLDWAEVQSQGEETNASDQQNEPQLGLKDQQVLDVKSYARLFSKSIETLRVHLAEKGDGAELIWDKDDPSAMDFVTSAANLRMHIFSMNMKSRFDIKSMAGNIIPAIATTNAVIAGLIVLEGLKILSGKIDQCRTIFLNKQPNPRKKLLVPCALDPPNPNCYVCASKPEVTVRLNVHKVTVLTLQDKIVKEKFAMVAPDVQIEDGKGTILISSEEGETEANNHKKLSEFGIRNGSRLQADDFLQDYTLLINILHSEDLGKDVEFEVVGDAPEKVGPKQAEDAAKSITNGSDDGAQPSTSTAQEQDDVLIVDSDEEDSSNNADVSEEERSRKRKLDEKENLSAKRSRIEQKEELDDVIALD
T1 sequence (Q9UBE0 1-346 partner): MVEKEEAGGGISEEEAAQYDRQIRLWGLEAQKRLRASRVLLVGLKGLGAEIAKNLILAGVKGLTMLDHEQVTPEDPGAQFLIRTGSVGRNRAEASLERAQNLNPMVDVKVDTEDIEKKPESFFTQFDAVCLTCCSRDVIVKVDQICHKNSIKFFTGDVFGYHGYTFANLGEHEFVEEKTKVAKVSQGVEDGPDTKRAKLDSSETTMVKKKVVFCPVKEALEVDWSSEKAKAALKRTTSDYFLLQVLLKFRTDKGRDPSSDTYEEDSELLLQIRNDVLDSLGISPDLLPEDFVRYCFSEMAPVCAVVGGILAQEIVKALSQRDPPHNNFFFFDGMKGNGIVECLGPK
Assay: SAE HTRF Enzyme Assay
Format: biochemical
Conditions: for IC50: class symbols A-C; for inhibition at 0.111 µM: compound concentration 0.111 μM, read-out: Percent Inhibition
Outline: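 Measured as FRET after a 2 h antibody step: SAE (0.11 nM) thioester transfer of Sumo-Flag to Ubc9-GST, 0.5 μM ATP, 24° C for 105 min, quenched with 20 mM EDTA. Output is IC50 or percent inhibition at a single concentration.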

Structure (SMILES): C#CCn1ccc(C(=O)c2cncnc2N[C@@H]2C[C@H](COS(N)(=O)=O)[C@@H](O)C2)c1 [Compound I-330, {(1R,2S,4R)-2-hydroxy-4-[(5-{[1-{prop-2-yn-1-yl)-1H-pyrrol-3-yl]carbonyl}pyrimidin-4-yl)amino]cyclopentyl}methyl sulfamate]
- IC50: 10 to 100 nM
- inhibition at 0.111 µM: 82%

Structure (SMILES): NS(=O)(=O)OC[C@H]1C[C@@H](Nc2ncncc2C(=O)c2ccn(Cc3ccc(Cl)c(Cl)c3)c2)[C@@H](F)[C@@H]1O [Compound I-331, {(1R,2R,3R,4R)-4-[(5-{[1-(3,4-dichlorobenzyl)-1H-pyrrol-3-yl]carbonyl}pyrimidin-4-yl)amino]-3-fluoro-2-hydroxycyclopentyl}methyl sulfamate]
- IC50: < 10 nM
- inhibition at 0.111 µM: 99%

Structure (SMILES): NS(=O)(=O)OC[C@H]1C[C@@H](Nc2ncncc2C(=O)c2ccn(Cc3cccc(Br)c3)c2)C[C@@H]1O [Compound I-333, {(1R,2S,4R)-4-[(5-{[1-(3-bromobenzyl)-1H-pyrrol-3-yl]carbonyl}pyrimidin-4-yl)amino]-2-hydroxycyclopentyl}methyl sulfamate]
- IC50: < 10 nM
- inhibition at 0.111 µM: 99%

Structure (SMILES): NS(=O)(=O)OC[C@H]1C[C@@H](Nc2ncncc2C(=O)c2ccn(Cc3cc(F)cc(Cl)c3)n2)[C@H](O)[C@@H]1O [Compound I-334, {(1R,2R,3S,4R)-4-[(5-{[1-(3-chloro-5-fluorobenzyl)-1H-pyrazol-3-yl]carbonyl}pyrimidin-4-yl)amino]-2,3-dihydroxycyclopentyl}methyl sulfamate]
- IC50: < 10 nM
- inhibition at 0.111 µM: 98%

Structure (SMILES): NS(=O)(=O)OC[C@H]1C[C@@H](Nc2ncncc2C(=O)c2cc(CO)n(Cc3ccccc3)n2)C[C@@H]1O [Compound I-335, {(1R,2S,4R)-4-[(5-{[1-Benzyl-5-(hydroxymethyl)-1H-pyrazol-3-yl]carbonyl}pyrimidin-4-yl)amino]-2-hydroxycyclopentyl}methyl sulfamate]
- IC50: < 10 nM
- inhibition at 0.111 µM: 97%

Structure (SMILES): NS(=O)(=O)OC[C@H]1C[C@@H](Nc2ncncc2C(=O)c2ccn(Cc3ccc(F)cc3F)n2)[C@H](O)[C@@H]1O [Compound I-336, {(1R,2R,3S,4R)-4-[(5-{[1-(2,4-difluorobenzyl)-1H-pyrazol-3-yl]carbonyl}pyrimidin-4-yl)amino]-2,3-dihydroxycyclopentyl}methyl sulfamate]
- IC50: < 10 nM
- inhibition at 0.111 µM: 97%

Structure (SMILES): NS(=O)(=O)OC[C@H]1C[C@@H](Nc2ncncc2C(=O)c2ccn(Cc3ccc(Cl)c(Br)c3)c2)[C@@H](F)[C@@H]1O [Compound I-337, {(1R,2R,3R,4R)-4-[(5-{[1-(3-bromo-4-chlorobenzyl)-1H-pyrrol-3-yl]carbonyl}pyrimidin-4-yl)amino]-3-fluoro-2-hydroxycyclopentyl}methyl sulfamate]
- IC50: < 10 nM
- inhibition at 0.111 µM: 98%

Structure (SMILES): NS(=O)(=O)OC[C@H]1C[C@@H](Nc2ncncc2C(=O)c2ccn(Cc3ccccc3F)n2)[C@H](O)[C@@H]1O [Compound I-338, {(1R,2R,3S,4R)-4-[(5-{[1-(2-fluorobenzyl)-1H-pyrazol-3-yl]carbonyl}pyrimidin-4-yl)amino]-2,3-dihydroxycyclopentyl}methyl sulfamate]
- IC50: < 10 nM
- inhibition at 0.111 µM: 99%

Structure (SMILES): CC#CCn1ccc(C(=O)c2cncnc2N[C@@H]2C[C@H](COS(N)(=O)=O)[C@@H](O)C2)c1 [Compound I-340, {(1R,2S,4R)-4-[(5-{[1-(but-2-yn-1-yl)-1H-pyrrol-3-yl]carbonyl}pyrimidin-4-yl)amino]-2-hydroxycyclopentyl}methyl sulfamate]
- IC50: < 10 nM
- inhibition at 0.111 µM: 94%

Structure (SMILES): NS(=O)(=O)OC[C@H]1C[C@@H](Nc2ncncc2C(=O)c2ccn(Cc3csc4ccc(Cl)cc34)c2)C[C@@H]1O [Compound I-341, [(1R,2S,4R)-4-{[5-({1-[(5-chloro-1-benzothiophen-3-yl)methyl]-1H-pyrrol-3-yl}carbonyl)pyrimidin-4-yl]amino}-2-hydroxycyclopentyl]methyl sulfamate]
- IC50: < 10 nM
- inhibition at 0.111 µM: 98%

Structure (SMILES): NS(=O)(=O)OC[C@@H]1C[C@@H](Nc2ncncc2C(=O)c2ccn(Cc3ccccc3)n2)C[C@@H]1O [Compound I-342, [(1S,2S,4R)-4-({5-[(1-benzyl-1H-pyrazol-3-yl)carbonyl]pyrimidin-4-yl}amino)-2-hydroxycyclopentyl]methyl sulfamate]
- IC50: 10 to 100 nM
- inhibition at 0.111 µM: 79%

Structure (SMILES): NS(=O)(=O)OC[C@H]1C[C@@H](Nc2ncncc2C(=O)c2ccn(Cc3ccc(F)c(C(F)(F)F)c3)n2)[C@H](O)[C@@H]1O [Compound I-343, [(1R,2R,3S,4R)-4-{[5-({1-[4-fluoro-3-(trifluoromethyl)benzyl]-1H-pyrazol-3-yl}carbonyl)pyrimidin-4-yl]amino}-2,3-dihydroxycyclopentyl]methyl sulfamate]
- IC50: < 10 nM
- inhibition at 0.111 µM: 97%

Structure (SMILES): CC(C)=C(C)n1ccc(C(=O)c2cncnc2N[C@@H]2C[C@H](COS(N)(=O)=O)[C@@H](O)C2)n1 [Compound I-344, {(1R,2S,4R)-2-hydroxy-4-[(5-{[1-(3-methylbut-2-en-2-yl)-1H-pyrazol-3-yl]carbonyl}pyrimidin-4-yl)amino]cyclopentyl}methyl sulfamate]
- IC50: 10 to 100 nM
- inhibition at 0.111 µM: 77%

Structure (SMILES): Cn1ccc(C(=O)c2cncnc2N[C@@H]2C[C@H](COS(N)(=O)=O)[C@@H](O)[C@H]2O)n1 [Compound I-345, [(1R,2R,3S,4R)-2,3-dihydroxy-4-({5-[(1-methyl-1H-pyrazol-3-yl)carbonyl]pyrimidin-4-yl}amino)cyclopentyl]methyl sulfamate]
- IC50: 100 to 1000 nM
- inhibition at 0.111 µM: 54%

Structure (SMILES): NS(=O)(=O)OC[C@H]1C[C@@H](Nc2ncncc2C(=O)c2ccn(Cc3cc(Br)ccc3F)n2)C[C@@H]1O [Compound I-346, {(1R,2S,4R)-4-[(5-{[1-(5-bromo-2-fluorobenzyl)-1H-pyrazol-3-yl]carbonyl}pyrimidin-4-yl)amino]-2-hydroxycyclopentyl}methyl sulfamate]
- IC50: < 10 nM
- inhibition at 0.111 µM: 100%

Structure (SMILES): Cc1cc(C(=O)c2cncnc2N[C@@H]2C[C@H](COS(N)(=O)=O)[C@@H](O)C2)nn1Cc1cccc(I)c1 [Compound I-347, {(1R,2S,4R)-2-hydroxy-4-[(5-{[1-(3-iodobenzyl)-5-methyl-1H-pyrazol-3-yl]carbonyl}pyrimidin-4-yl)amino]cyclopentyl}methyl sulfamate]
- IC50: < 10 nM
- inhibition at 0.111 µM: > 99%

Structure (SMILES): Cc1cc(Cn2ccc(C(=O)c3cncnc3N[C@@H]3C[C@H](COS(N)(=O)=O)[C@@H](O)C3)n2)no1 [Compound I-348, [(1R,2S,4R)-2-hydroxy-4-{[5-({1-[(5-methylisoxazol-3-yl)methyl]-1H-pyrazol-3-yl}carbonyl)pyrimidin-4-yl]amino}cyclopentyl]methyl sulfamate]
- IC50: < 10 nM
- inhibition at 0.111 µM: 94%

Structure (SMILES): NS(=O)(=O)OC[C@H]1C[C@@H](Nc2ncncc2C(=O)c2ccn(Cc3cccc(OC(F)(F)F)c3)n2)[C@H](O)[C@@H]1O [Compound I-349, [(1R,2R,3S,4R)-2,3-dihydroxy-4-{[5-({1-[3-(trifluoromethoxy)benzyl]-1H-pyrazol-3-yl}carbonyl)pyrimidin-4-yl]amino}cyclopentyl]methyl sulfamate]
- IC50: < 10 nM
- inhibition at 0.111 µM: 100%

Structure (SMILES): NS(=O)(=O)OC[C@H]1C[C@@H](Nc2ncncc2C(=O)c2ccn(Cc3cccc(Br)n3)n2)C[C@@H]1O [Compound I-352, [(1R,2S,4R)-4-{[5-({1-[(6-bromopyridin-2-yl)methyl]-1H-pyrazol-3-yl}carbonyl)pyrimidin-4-yl]amino}-2-hydroxycyclopentyl]methyl sulfamate]
- IC50: < 10 nM
- inhibition at 0.111 µM: 99%

Structure (SMILES): CC(C)(O)c1cc(C(=O)c2cncnc2N[C@@H]2C[C@H](COS(N)(=O)=O)[C@@H](O)C2)nn1Cc1cccc(Br)c1 [Compound I-367, {(1R,2S,4R)-4-[(5-{[1-(3-bromobenzyl)-5-(2-hydroxypropan-2-yl)-1H-pyrazol-3-yl]carbonyl}pyrimidin-4-yl)amino]-2-hydroxycyclopentyl}methyl sulfamate]
- IC50: < 10 nM
- inhibition at 0.111 µM: 99%

Structure (SMILES): COCc1cc(C(=O)c2cncnc2N[C@@H]2C[C@H](COS(N)(=O)=O)[C@@H](O)C2)nn1Cc1cccc(Br)c1 [Compound I-368, {(1R,2S,4R)-4-[(5-{[1-(3-bromobenzyl)-5-(methoxymethyl)-1H-pyrazol-3-yl]carbonyl}pyrimidin-4-yl)amino]-2-hydroxycyclopentyl}methyl sulfamate]
- IC50: < 10 nM
- inhibition at 0.111 µM: 98%

— US9695154B2, “Heteroaryl inhibitors of sumo activating enzyme” (MILLENNIUM PHARMACEUTICALS, INC., priority 2013, dated 2017)
